Paper PMC5443783, “Prostaglandin E2 glyceryl ester is an endogenous agonist of the nucleotide receptor P2Y6” (Scientific Reports, 2017)
“Also recorded” adds a separate entry of the source. Numbered stars: 1 amine (or outer) side, 2 acyl side, 3 side chain; on linkers, the order of the positions; unused ones are H or OH. Bridge positions count the residues as written; N and C are the ends. Square brackets hold non-standard residues; d marks the D form. Peptide text beside a SMILES is read from it. * marks the point of attachment. Leu(3R-OH,Nα-propionyl) = CCC(=O)N[C@H](C(=O)*)[C@H](O)C(C)C; X1 = CC(C)[C@@H](O[*:3])[C@H](N[*:1])C(=O)[*:2]; NMeT = CN[C@H](C(=O)O)[C@@H](C)O; dPhLac = O=C(O)[C@H](O)Cc1ccccc1; NMeA = CN[C@@H](C)C(=O)O; NMeDha = C=C(NC)C(=O)O

Assays:
P2Y12 = target: T1, P2Y12 (Homo sapiens, UniProt Q9H244); assay: Intracellular Ca2+ release in HEK293 cells transfected with P2RY12; type: cell-based; settings: HEK293 transfected with P2RY12, Fig. 3f
T1 construct: expressed in transfected cells; host or cells: HEK293
T1 sequence (Q9H244 whole entry, species assumed): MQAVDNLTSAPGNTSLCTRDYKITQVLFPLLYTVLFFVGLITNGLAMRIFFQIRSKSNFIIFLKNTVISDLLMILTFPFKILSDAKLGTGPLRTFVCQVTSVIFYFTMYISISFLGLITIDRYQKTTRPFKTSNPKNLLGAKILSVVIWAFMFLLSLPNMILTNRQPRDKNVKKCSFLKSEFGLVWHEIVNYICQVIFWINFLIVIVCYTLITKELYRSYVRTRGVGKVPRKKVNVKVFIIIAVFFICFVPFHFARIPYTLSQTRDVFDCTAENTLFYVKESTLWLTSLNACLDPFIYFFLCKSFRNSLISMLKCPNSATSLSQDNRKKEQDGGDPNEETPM
Experimental: (§1) For fluorometric measurements of intracellular Ca^2+ levels with the FlexStationII instrument (Molecular Devices), RAW264.7 and H1819 cells were seeded into 96-well plates (3.0 × 10^4 cells/well) 24 h prior to assay. Ca^2+ measurements with transiently transfected HEK293 cells were performed 48 h after transfection. Cells were loaded with 200 µl Calcium 5 reagent (Explorer Kit, Molecular Devices, USA) for 60 min at 37 °C, and the assay was performed as described. Agonists and inhibitors were solved in DMSO (100x) and diluted […] in 96-well compound plates containing HBSS. 50 µl of compound solution were added to the assay plate resulting in final concentration of 1% DMSO. Fold-response was calculated by RFUmax − RFUmin (ligand)/RFUmax − RFUmin (vehicle). EC50 values were calculated by using GraphPad Prism6 software (GraphPad, USA).

P2Y1 = target: T2, P2Y1 (Homo sapiens, UniProt P47900); assay: Intracellular Ca2+ release in HEK293 cells transfected with P2RY1; type: cell-based; settings: HEK293 transfected with P2RY1, Fig. 3f
T2 construct: expressed in transfected cells; host or cells: HEK293
T2 sequence (P47900 whole entry, species assumed): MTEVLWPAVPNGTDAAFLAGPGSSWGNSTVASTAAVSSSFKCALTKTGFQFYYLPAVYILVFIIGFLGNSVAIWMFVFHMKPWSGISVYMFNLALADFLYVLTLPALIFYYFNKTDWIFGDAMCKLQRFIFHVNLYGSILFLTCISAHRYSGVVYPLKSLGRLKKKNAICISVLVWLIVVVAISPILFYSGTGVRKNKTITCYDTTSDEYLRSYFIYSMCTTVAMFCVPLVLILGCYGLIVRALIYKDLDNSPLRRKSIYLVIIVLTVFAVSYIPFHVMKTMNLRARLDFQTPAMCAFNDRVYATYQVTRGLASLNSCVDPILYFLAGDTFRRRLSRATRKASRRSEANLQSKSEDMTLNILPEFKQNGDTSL
Experimental: as §1

RAW264.7 cells = settings: RAW264.7 cells; cited from earlier work
P2Y6 [1] = target: T3, P2Y6 (Homo sapiens, UniProt Q15077); assay: ERK1/2 phosphorylation (AlphaScreen SureFire) in P2RY6-transfected HEK293 cells; type: cell-based; design: expressed in transfected cells; host or cells: HEK293; settings: HEK293 cells stably transfected with P2RY6, Fig. 3e
T3 sequence (Q15077 whole entry, the tested form may be a part): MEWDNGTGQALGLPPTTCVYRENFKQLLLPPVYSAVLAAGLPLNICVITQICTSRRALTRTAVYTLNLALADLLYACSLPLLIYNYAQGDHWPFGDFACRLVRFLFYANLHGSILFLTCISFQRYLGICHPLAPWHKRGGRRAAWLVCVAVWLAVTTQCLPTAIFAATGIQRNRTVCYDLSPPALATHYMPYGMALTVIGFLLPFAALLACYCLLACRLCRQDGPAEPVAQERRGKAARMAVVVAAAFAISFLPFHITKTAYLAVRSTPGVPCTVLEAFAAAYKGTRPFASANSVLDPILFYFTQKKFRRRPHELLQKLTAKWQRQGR
Experimental: Cells were transferred to serum-free medium 2 h prior to assay. Ligands and controls (10 µl of 10× concentrates) were added to 90 µl medium and incubated for 5 min at 37 °C. The final concentration of DMSO was 0.2%. The reaction was stopped by aspiration of the medium and addition of 50 µl lysis buffer (PerkinElmer Life Sciences). To measure ERK1/2 phosphorylation, the AlphaScreen® SureFire ERK 1/2 assay kit (PerkinElmer Life Sciences) was used with the high sensitivity protocol. Phosphorylated ERK1/2 was measured in 384-well white OptiPlate microplates (PerkinElmer Life Sciences) with the Fusion AlphaScreen multilabel reader (PerkinElmer Life Sciences).

[2] = target: T4, cannabinoid receptor 2 (Cnr2) (Homo sapiens, UniProt P34972); assay: Intracellular Ca2+ measurement in CNR2-transfected HEK293 cells; type: cell-based; settings: 200 nM of 2-AG, Fig. 2c
T4 construct: expressed in transfected cells; host or cells: HEK293
T4 sequence (P34972 whole entry): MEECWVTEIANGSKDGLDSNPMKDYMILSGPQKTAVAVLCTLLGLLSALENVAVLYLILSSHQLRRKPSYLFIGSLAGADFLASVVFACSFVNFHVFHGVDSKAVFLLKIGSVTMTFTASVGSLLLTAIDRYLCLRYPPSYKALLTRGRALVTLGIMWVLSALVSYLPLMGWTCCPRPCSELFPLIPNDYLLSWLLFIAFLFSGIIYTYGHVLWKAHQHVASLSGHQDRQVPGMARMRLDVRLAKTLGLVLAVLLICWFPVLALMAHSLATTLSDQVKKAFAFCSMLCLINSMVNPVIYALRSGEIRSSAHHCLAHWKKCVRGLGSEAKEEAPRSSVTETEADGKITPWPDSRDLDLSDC
Experimental: RAW264.7 cells were grown in DMEM supplemented with 10% FBS, A7r5 (rat […]) cells in DMEM with 10% FBS, and A431 (human squamous carcinoma) cells in RPMI supplemented with 10% FBS. All cell lines were grown at 37 °C in a humidified 5% CO2 incubator. For functional assays, receptor constructs were heterologously expressed in human embryonic kidney (HEK293) cells upon transient or stable transfection. Cells were grown in DMEM/F12 supplemented with 10% FBS, 100 units/ml penicillin, and 100 µg/ml streptomycin. For the cAMP-inhibition assay, ERK1/2 phosphorylation assay, and Ca^2+ mobilization assay, cells were split into 96-well plates (2.0 × 10^4 cells/well) and transfected with 250 ng vector construct using MACSfectin™ (Miltenyi Biotec, Germany) according to manufacturer’s protocol. Empty vector (mock) served as the negative control. For siRNA experiments, cells were seeded in 6-well plates (4.0 × 10^5 and 6.0 × 10^5 cells/well for RAW264.7 and H1819, respectively). […]
For fluorometric measurements of intracellular Ca^2+ levels with the FlexStationII instrument (Molecular Devices), RAW264.7 and H1819 cells were seeded into 96-well plates (3.0 × 10^4 cells/well) 24 h prior to assay. […] Fold-response was calculated by RFUmax − RFUmin (ligand)/RFUmax − RFUmin (vehicle). EC50 values were calculated by using GraphPad Prism6 software (GraphPad, USA).

P2Y6 [3] = target: T3, P2Y6; assay: Intracellular Ca2+ measurement in HEK293 cells transfected with P2RY6; type: cell-based; design: expressed in transfected cells; host or cells: HEK293; settings: HEK293 stably transfected with P2RY6, Fig. 5c,d
Experimental: RAW264.7 cells were grown in DMEM supplemented with 10% FBS, A7r5 (rat […]) cells in DMEM with 10% FBS, and A431 (human squamous carcinoma) cells in RPMI supplemented with 10% FBS. All cell lines were grown at 37 °C in a humidified 5% CO2 incubator. For functional assays, receptor constructs were heterologously expressed in human embryonic kidney (HEK293) cells upon transient or stable transfection. Cells were grown in DMEM/F12 supplemented with 10% FBS, 100 units/ml penicillin, and 100 µg/ml streptomycin. For the cAMP-inhibition assay, ERK1/2 phosphorylation assay, and Ca^2+ mobilization assay, cells were split into 96-well plates (2.0 × 10^4 cells/well) and transfected with 250 ng vector construct using MACSfectin™ (Miltenyi Biotec, Germany) according to manufacturer’s protocol. Empty vector (mock) served as the negative control. For siRNA experiments, cells were seeded in 6-well plates (4.0 × 10^5 and 6.0 × 10^5 cells/well for RAW264.7 and H1819, respectively). RAW264.7 and H1819 cells were transfected with 150 pMol of mP2RY6 siRNA and hP2RY6 siRNA (Santa Cruz Biotechnology, USA), respectively, using Viromer® Blue (Lipocalyx, Germany). As a negative control, control siRNA-A (Santa Cruz Biotechnology, USA) was used. FITC-labelled siRNA served as a transfection control.
To generate a cell line stably expressing P2Y6, HEK293 cells were seeded in 6-well plates (7.5 × 10^5 cells/well) and transfected with 3 µg vector using MACSfectin™ as transfection regent according to the manufacturer’s protocol. The pIRES-eGFP vector served as negative control. Stably transfected HEK293 cells were cultured in the presence of geneticin (500 µg/ml) for selection.
as §1

P2Y6 [4] = target: T3, P2Y6; assay: Agonist-induced receptor internalization, cell surface ELISA; type: cell-based; design: expressed in transfected cells; host or cells: HEK293; settings: Fig. 5e
Experimental: To estimate cell surface expression of heterologously expressed receptors carrying an N-terminal HA tag, an indirect cellular ELISA was used[57]. To determine the endogenous cell surface expression of P2Y6, the same ELISA procedure was performed with minor modifications. Briefly, after 4% paraformaldehyde fixation and blocking with 10% FBS, cells were incubated with the primary anti-P2Y6 antibody (sc-15215; Santa Cruz Biotechnology, USA) in 1:1,000 dilution for 1 h. After washing with PBS, cells were incubated with peroxidase-conjugated secondary antibody anti-goat IgG (sc-2020, Santa Cruz Biotechnology, USA) in 1:5,000 dilutions.

P2Y6 [5] = target: T3, P2Y6; assay: Functional readouts at P2Y6, summary statements; type: cell-based; settings: Fig. 5a–d
P2Y6 [6] = target: T3, P2Y6; assay: IP1 accumulation assay in HEK293 cells transfected with wildtype P2RY6; type: cell-based; design: expressed in transfected cells; host or cells: HEK293
Experimental: To measure intracellular IP3 the HitHunter® Inositol (1,4,5) Triphosphate Assay (DiscoveRx, USA) was used according to manufacturer′s protocol. HEK293 cells stably transfected with hP2RY6 were seeded in a 384-well Black microtiter plate (15,000 cells/well) (Greiner Bio One, Germany) and incubated with indicated concentrations of UDP and PGE2-G for 20 seconds. Reaction was stopped by adding 5 µl 0.2 N perchloric acid and measurement of IP3 was performed with the Fusion AlphaScreen multilabel reader (PerkinElmer Life Sciences) according to manufacturer′s protocol. To measure IP1, HEK293 cells expressing wildtype and mutant P2Y6 were seeded into 384-well plates (5,000 cells/well) 24 h prior assay. After aspiration of the medium, cells were incubated with indicated concentrations of agonists/antagonist for 1 h. IP1 measurements using the IP-one HTFR® assay kit (Cisbio assays, USA) were performed according to manufacturer′s protocol. The assays were performed with a final concentration of 1% DMSO.

Nc1ncnc2c1ncn2[C@@H]1O[C@H](COP(=O)(O)OP(=O)(O)O)[C@@H](O)[C@H]1O [ADP]
Ca2+ release (P2Y12): led to Ca^2+ release | Ca2+ release (P2Y1): led to Ca^2+ release

CCCCC[C@H](O)/C=C/[C@@H]1[C@@H](C/C=C\CCCC(=O)OC(CO)CO)[C@@H](O)C[C@H]1O [PGF2α-G]
effect in Ca2+ measurements (RAW264.7 cells): no effect | ERK1/2 phosphorylation response (P2Y6 [1]): no response

CCCCC[C@H](O)/C=C/[C@@H]1[C@@H](C/C=C\CCCC(=O)O)[C@@H](O)C[C@H]1O [PGF2α]
effect in Ca2+ measurements (RAW264.7 cells): led to Ca^2+ release | ERK1/2 phosphorylation response (P2Y6 [1]): no effect

CCCCC/C=C\C/C=C\C/C=C\C/C=C\CCCC(=O)OC(CO)CO [2-AG, 2-arachidonoylglycerol]
effect on intracellular Ca2+ [2]: robust intracellular Ca^2+ increase; also recorded: elevated intracellular Ca^2+

S=C=Nc1cccc(NC(=S)NCCCCNC(=S)Nc2cccc(N=C=S)c2)c1 [MRS2578]
effect of antagonist on UDP- and PGE2-G-triggered Ca2+ release (P2Y6 [3]): same effects; also recorded: reduced both, the efficacies and potencies | effect of antagonist on agonist-induced internalization (P2Y6 [4]): blocked the internalization | mode of antagonism (P2Y6 [5]): antagonist with mixed properties (competitive and non-competitive) | effect of antagonist on UDP- and PGE2-G-triggered IP1 accumulation (P2Y6 [6]; HEK293 stably transfected with P2RY6, increasing antagonist concentrations, Fig. 5a,b): reduced both the efficacies and potencies; also recorded: reduced both, the efficacies and potencies

C=C1C(=O)N[C@@H](C)C(=O)N(C)[C@@H](C)C(=O)N[C@@H]([C@H](OC(=O)[C@@H](NC(=O)CC)[C@H](O)C(C)C)C(C)C)C(=O)N(C)[C@@H]([C@@H](C)OC)C(=O)O[C@H](C(C)C)[C@H](NC(C)=O)C(=O)O[C@H](Cc2ccccc2)C(=O)N1C [UBO] (Ac-[X1][dPhLac][NMeDha]A[NMeA][X1](Leu(3R-OH,Nα-propionyl))[NMeT](Me); ester 1-C)
block of IP formation after stimulation with UDP and PGE2-G (P2Y6 [6]; IP1 accumulation, P2RY6-transfected HEK293, Fig. 3d): significantly block

CCCCC[C@H](O)/C=C/[C@H]1C(=O)C[C@H](O)[C@@H]1C/C=C\CCCC(=O)OC(CO)CO [PGD2-G]
effect in Ca2+ measurements (RAW264.7 cells): no effect

CCCCC[C@H](O)/C=C/[C@H]1[C@H](O)CC(=O)[C@@H]1C/C=C\CCCC(=O)O [PGE2]
effect in Ca2+ measurements (RAW264.7 cells): no effect | ERK1/2 phosphorylation response (P2Y6 [1]): no response
